# Assay results as given in ChEMBL document CHEMBL5120806, “Synthesis and biological evaluation of glucagon-like peptide-1 analogs with the C-terminal helix 3 of albumin-binding domain 3” (Bioorg Med Chem, 2022).
# Calls of active or inactive are those of the source. The calls are words filed in the database; no cut-off is given here. Where a SMILES comes first, the peptide text is derived from it. [ ]: non-standard residue; d: D form. Aun = NCCCCCCCCCCC(=O)O; AEEA = NCCOCCOCC(=O)O; Aib = CC(C)(N)C(=O)O; Aoc = NCCCCCCCC(=O)O
# Legend:
# Albumin = Albumin (Homo sapiens, UniProt P02768); test: Binding affinity to albumin (unknown origin) by HPLC analysis
# [1] = target: T1, Glucagon-like peptide 1 receptor (Homo sapiens, UniProt P43220); test: Activation of GLP-1 receptor (unknown origin) expressed in CHO-K1 cells assessed as increase in cAMP accumulation by time-resolved fluorescence resonance energy transfer immunoassay; assay type: functional, cell-based
# [2] = target: T1, Glucagon-like peptide 1 receptor; test: Binding affinity to GLP-1 receptor (unknown origin) assessed as binding rate constant by surface plasmon resonance analysis; conditions: filed as activator
# [3] = target: T1, Glucagon-like peptide 1 receptor; test: Binding affinity to GLP-1 receptor (unknown origin) assessed as dissociation rate constant by surface plasmon resonance analysis; conditions: filed as activator
# [4] = target: T1, Glucagon-like peptide 1 receptor; test: Binding affinity to GLP-1 receptor (unknown origin) assessed as equlibrium constant by surface plasmon resonance analysis
# Mus musculus [5] = test: Antidiabetic activity in mouse assessed as decrease in blood glucose level at 30 nmol/kg, sc measured after 24 hrs; assay type: functional, organism-based
# Mus musculus [6] = test: Antidiabetic activity in mouse assessed as decrease in AUC (0 to 24hrs) glucose level at 30 nmol/kg, sc measured after 24 hrs; assay type: functional, organism-based
# Mus musculus [7] = test: Antidiabetic activity in mouse assessed as decrease in body weight at 30 nmol/kg, sc measured after 24 hrs; assay type: functional, organism-based
# [8] = target: T2, Glucagon-like peptide 1 receptor (Rattus norvegicus) (UniProt P32301); test: Activation of GLP-1 receptor in rat INS-1 cells assessed as cAMP accumulation at 10 nmol/L time-resolved fluorescence resonance energy transfer immunoassay; assay type: functional, cell-based; conditions: INS1, filed as activator
# T2 sequence (whole entry): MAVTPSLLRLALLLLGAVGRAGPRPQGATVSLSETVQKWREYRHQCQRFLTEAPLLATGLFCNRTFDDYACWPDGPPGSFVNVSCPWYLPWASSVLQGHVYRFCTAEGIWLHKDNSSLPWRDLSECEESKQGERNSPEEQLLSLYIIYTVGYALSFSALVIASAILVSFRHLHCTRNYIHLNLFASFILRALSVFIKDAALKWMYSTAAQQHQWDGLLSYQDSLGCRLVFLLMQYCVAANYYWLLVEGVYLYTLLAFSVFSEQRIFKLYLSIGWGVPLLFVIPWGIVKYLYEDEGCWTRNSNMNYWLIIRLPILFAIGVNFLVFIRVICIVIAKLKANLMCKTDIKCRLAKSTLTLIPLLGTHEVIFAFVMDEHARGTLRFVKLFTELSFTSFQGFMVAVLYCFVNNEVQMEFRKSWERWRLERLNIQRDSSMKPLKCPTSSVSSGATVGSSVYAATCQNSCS
# T1 sequence (P43220 whole entry): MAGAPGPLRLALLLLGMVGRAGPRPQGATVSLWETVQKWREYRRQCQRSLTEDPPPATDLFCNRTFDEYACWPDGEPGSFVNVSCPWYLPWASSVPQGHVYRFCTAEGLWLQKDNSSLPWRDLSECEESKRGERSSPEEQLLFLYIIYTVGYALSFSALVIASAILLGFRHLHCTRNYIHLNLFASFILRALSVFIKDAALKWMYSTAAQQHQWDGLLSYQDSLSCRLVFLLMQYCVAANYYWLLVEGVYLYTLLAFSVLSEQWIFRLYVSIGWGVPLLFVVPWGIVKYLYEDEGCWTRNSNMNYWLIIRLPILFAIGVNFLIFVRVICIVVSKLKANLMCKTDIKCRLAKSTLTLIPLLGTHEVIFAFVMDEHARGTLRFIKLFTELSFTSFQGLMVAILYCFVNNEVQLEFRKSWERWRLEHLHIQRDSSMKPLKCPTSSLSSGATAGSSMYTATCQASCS
# Sequence of Albumin (P02768 whole entry): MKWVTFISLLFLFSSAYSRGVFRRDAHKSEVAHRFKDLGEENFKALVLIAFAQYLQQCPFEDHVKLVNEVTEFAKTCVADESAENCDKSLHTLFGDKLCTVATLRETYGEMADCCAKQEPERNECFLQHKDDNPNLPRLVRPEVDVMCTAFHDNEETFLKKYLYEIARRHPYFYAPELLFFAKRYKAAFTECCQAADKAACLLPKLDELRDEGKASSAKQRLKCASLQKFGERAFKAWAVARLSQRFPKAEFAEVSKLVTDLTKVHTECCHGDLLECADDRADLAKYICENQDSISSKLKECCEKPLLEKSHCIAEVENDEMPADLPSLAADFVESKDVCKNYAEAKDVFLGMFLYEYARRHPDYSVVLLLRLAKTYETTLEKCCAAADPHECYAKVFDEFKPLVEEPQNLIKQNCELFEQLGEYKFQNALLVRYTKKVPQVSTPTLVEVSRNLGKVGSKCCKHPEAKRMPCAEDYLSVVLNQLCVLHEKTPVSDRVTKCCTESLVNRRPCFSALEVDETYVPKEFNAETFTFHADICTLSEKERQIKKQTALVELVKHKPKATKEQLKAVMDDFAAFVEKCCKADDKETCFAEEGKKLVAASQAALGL
Molecule,Activity (Albumin),EC50 [1],Ka [2],Kdiss [3],Kd [4],Activity [8],Activity (Mus musculus [5]),Activity (Mus musculus [6]),Activity (Mus musculus [7])
SEMAGLUTIDE [listing 1 of 2 here],> 99%,–,–,–,–,–,–,–,–
SEMAGLUTIDE [listing 2 of 2 here],–,–,7.26 10^4/Ms,3.2 10^-2/s,–,–,Active,Active,–
H-[Aib]EGTFTSDVSSYLEGQAAKEFIAWLVKG[Aoc]GVKALIDEILAA-NH2,77.4%,0.204 nM,2.01 10^4/Ms,1.41 10^-2/s,700 nM,–,Active,Active,–
H-[Aib]EGTFTSDVSSYLEGQAAKEFIAWLVKG[Aun]GVKALIDEILAA-NH2,89.2%,0.209 nM,7.53 10^3(1/Ms),1.1 10^-2/s,1460 nM,Active,Active,Active,Active

# The next lines start with results.
Activity (Albumin),EC50 [1],Ka [2],Kdiss [3],Kd [4],Activity [8],Molecule,Activity (Mus musculus [5]),Activity (Mus musculus [6]),Activity (Mus musculus [7])
86.2%,0.0651 nM,2.99 10^3(1/Ms),1.12 10^-2/s,3750 nM,Active,CC[C@H](C)[C@H](NC(=O)[C@H](Cc1ccccc1)NC(=O)[C@H](CCC(=O)O)NC(=O)[C@H](CCCCN)NC(=O)[C@H](C)NC(=O)[C@H](C)NC(=O)[C@H](CCC(N)=O)NC(=O)CNC(=O)[C@H](CCC(=O)O)NC(=O)[C@H](CC(C)C)NC(=O)[C@H](Cc1ccc(O)cc1)NC(=O)[C@H](CO)NC(=O)[C@H](CO)NC(=O)[C@@H](NC(=O)[C@H](CC(=O)O)NC(=O)[C@H](CO)NC(=O)[C@@H](NC(=O)[C@H](Cc1ccccc1)NC(=O)[C@@H](NC(=O)CNC(=O)[C@H](CCC(=O)O)NC(=O)C(C)(C)N)[C@@H](C)O)[C@@H](C)O)C(C)C)C(=O)N[C@@H](C)C(=O)N[C@@H](Cc1c[nH]c2ccccc12)C(=O)N[C@@H](CC(C)C)C(=O)N[C@H](C(=O)N[C@@H](CCCCN)C(=O)NCC(=O)NCC(=O)N[C@H](C(=O)N[C@@H](CCCCN)C(=O)N[C@@H](C)C(=O)N[C@@H](CC(C)C)C(=O)N[C@H](C(=O)N[C@@H](CC(=O)O)C(=O)N[C@@H](CCC(=O)O)C(=O)N[C@H](C(=O)N[C@@H](CC(C)C)C(=O)N[C@@H](C)C(=O)N[C@@H](C)C(N)=O)[C@@H](C)CC)[C@@H](C)CC)C(C)C)C(C)C (H-[Aib]EGTFTSDVSSYLEGQAAKEFIAWLVKGGVKALIDEILAA-NH2),Active,Active,Active
65.6%,0.17 nM,3.57 10^4/Ms,3.25 10^-2/s,912 nM,–,H-[Aib]EGTFTSDVSSYLEGQAAKEFIAWLVKG[AEEA][AEEA]GVKALIDEILAA-NH2,Active,Active,–
66.5%,0.135 nM,3.11 10^4/Ms,1.65 10^-2/s,532 nM,–,H-[Aib]EGTFTSDVSSYLEGQAAKEFIAWLVKG[Aoc][AEEA]GVKALIDEILAA-NH2,Active,Active,–
76.4%,0.158 nM,1.32 10^4/Ms,1.97 10^-2/s,1490 nM,–,H-[Aib]EGTFTSDVSSYLEGQAAKEFIAWLVKG[Aun][AEEA]GVKALIDEILAA-NH2,Active,Active,Active
75.4%,0.132 nM,1.95 10^4/Ms,1.94 10^-2/s,994 nM,–,H-[Aib]EGTFTSDVSSYLEGQAAKEFIAWLVKG[AEEA]GVKALIDEILAA-NH2,Active,–,–
